Measured values taken from patent US11884675B2, “Heterocyclic compounds as triggering receptor expressed on myeloid cells 2 agonists and methods of use” (AMGEN INC., priority 2020, dated 2024).

What follows are molecules tested against hTREM2 (Homo sapiens, UniProt Q9NZC2) (assay: TREM2 activity by cellular Syk phosphorylation (AlphaScreen/AlphaLISA) in TREM2/DAP12-HEK cells, used for Examples 1-305). Conditions: HEK293 Cells.
Assay type: cell-based
Design: expressed in transfected cells
Text: In vitro Measurement of Triggering Receptor Expressed on Myeloid Cells 2 activity using cellular phosphorylation of Spleen Tyrosine Kinase (“Syk”) Assays used for Examples 1-305
Pharmacological measurements of TREM2 signaling through DAP12 were made with TREM2 and DAP12 overexpressing HEK293 cells stable cell lines that had been single-cell cloned (“TREM2/DAP12-HEK”). The readout of the TREM2 signaling utilized Perkin Elmer AlphaScreen/AlphaLISA technology monitoring the phosphorylation levels of the Syk kinase. TREM2/DAP12-HEK cell lines were cultured in DMEM-F12 (Corning 10-092-CM) supplemented with 1X Penicillin/Streptomycin (Corning 30-002-CI), 1X GlutaMAX (Gibco 35050-061), and 10% Fetal Bovine Serum (Life Technologies 10099) referred to as “HEK Culture Medium”. Suspensions of TREM2/DAP12-HEK cells were prepared in HEK Culture Medium and dispensed into 384-well poly-D-lysine coated microplates (Corning 354661) at a density of 20,000 cells/well using a Multidrop Combi peristaltic microplate dispenser (Thermo), 25 μL volume of cell suspension/well. Plates containing cells were then incubated for 20 hours in a humidified cell culture incubator at 37° C. with 5% CO2 (Thermo). After incubation, culture medium was removed from all wells of each microplate and replaced with 20 μL of “Assay Buffer” comprised of DMEM-F12 (Corning 10-092-CM) supplemented with 1X Penicillin/Streptomycin (Corning 30-002-CI) and 0.1% Pluronic F-68 Polyol (MP Biomedical 092750049) using a Bravo 384-well pipette-based liquid handling system (Agilent). Assay Buffer contained diluted test articles (in 1% final DMSO concentration for compounds) or 100 nM anti-human/mouse TREM2 antibody (R&D Systems MAB17291) as a positive control, or 100 nM or rat IgG2B isotype Ab as a negative control (R&D Systems MAB0061). The plates were incubated with test articles and controls for 45 minutes at room temperature and then the medium was aspirated/removed from each well of the plates. A Multidrop Combi peristaltic liquid handler (Thermo) was used to dispense 15 μL/well of “Cell Lysis Immunoassay Buffer”. The Cell Lysis Immunoassay Buffer contained M-PER Mammalian Protein Extraction Reagent (Pierce/ThermoFisher 78505), 1X Halt Phosphatase Inhibitor Cocktail (ThermoFisher #78427), 0.1875 nM anti-phospho-Syk (Tyr525/526) (C87C1) rabbit mAb (Cell Signaling Technologies catalog #2710), and 1.5 nM biotinylated Mouse anti-human Syk (4D10) antibody (BD Biosciences, catalog #624008). Plates were incubated for 1 hour at room temperature after the addition of the Cell Lysis Immunoassay Buffer. The Multidrop Combi liquid handler was used to dispense 15 μL of AlphaScreen Acceptor Bead Solution containing 7.5 μg/mL anti-rabbit IgG (Fc specific) AlphaLISA Acceptor Beads (Perkin Elmer AL104R) in 1X Immunoassay buffer (Perkin Elmer AL000F) to each well of the microplates. The plates were incubated for 2 hours at room temperature. Following the incubation with the AlphaLISA Acceptor Bead Solution, a Multidrop Combi liquid handler (Thermo) was used to dispense 15 μL of AlphaScreen Donor Bead Solution containing 30 μg/mL of AlphaScreen Streptavidin Donor beads (Perkin Elmer 6760002B) in 1X Immunoassay buffer (Perkin Elmer AL000F) to each well of the microplates. Microplates were incubated for 2 hours protected from light sources as the AlphaScreen reagents are light sensitive. Once the final incubation was completed, an AlphaScreen signal was acquired from the donor and acceptor beads using an Envision high throughput multi-modal microplate reader (Perkin Elmer) calibrated to the plate type with the AlphaScreen mirror and filter-set in 384-well mode, 680 nanometer excitation wavelength. The total measurement time per well was 550 milliseconds with a 180 millisecond excitation time. […]

hTREM2, sequence (Q9NZC2 19-230): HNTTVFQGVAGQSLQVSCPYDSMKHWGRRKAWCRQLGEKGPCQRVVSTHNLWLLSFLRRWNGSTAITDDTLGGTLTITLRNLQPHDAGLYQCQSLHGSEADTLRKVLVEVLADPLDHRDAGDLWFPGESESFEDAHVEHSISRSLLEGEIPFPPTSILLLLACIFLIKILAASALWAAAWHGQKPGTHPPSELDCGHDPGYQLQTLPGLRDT
hTREM2, sequence (O43914 22-113 partner): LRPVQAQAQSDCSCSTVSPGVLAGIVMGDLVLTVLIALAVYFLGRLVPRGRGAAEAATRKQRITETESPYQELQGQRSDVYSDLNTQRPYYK

SMILES | hTREM2 Emax | EC50
Cc1nc2nc([C@H]3CCO[C@@H](c4cnn(C5CC5)c4)C3)nc(-c3ccc(Cl)cc3F)c2nc1C (single isomer, unassigned) [Example 181] | +++ (Emax>150 and ≤250) | 
Cc1cnc2nc(N3CCO[C@@H](c4cnn(C)c4)C3)cc(-c3ccc(Cl)cc3F)c2n1 [Example 158, 8-(4-chloro-2-fluorophenyl)-2-methyl-6-((2S)-2-(1-methyl-1H-pyrazol-4-yl)-4-morpholinyl)pyrido [2,3-b]pyrazine] | +++ (Emax>150 and ≤250) | 50 to 500 nM
Cc1ccc2c(-c3ccc(Cl)cc3F)nc(N3CCO[C@@H](c4cnn(C5CC5)c4)C3)nc2n1 [Example 85, 4-(4-chloro-2-fluorophenyl)-2-((2S)-2-(1-cyclopropyl-1H-pyrazol-4-yl)-4-morpholinyl)-7-methylpyrido[2,3-d]pyrimidine] | +++ (Emax>150 and ≤250) | ≤ 50 nM
Cc1cc([C@H]2C[C@H](c3nc(-c4ccc(F)cc4F)c4nc(C)c(C)nc4n3)CCO2)ccn1 (single isomer, unassigned) [Example 213] | +++ (Emax>150 and ≤250) | 50 to 500 nM
Cc1cnc2c(C34CC(C(F)(F)F)(C3)C4)nc(N3CCO[C@@H](c4cnn(C5CC5)c4)C3)nc2n1 [Example 231, (S)-2-(1-cyclopropyl-1H-pyrazol-4-yl)-4-(7-methyl-4-(3-(trifluoromethyl)bicyclo[1.1.1]pentan-1-yl)pteridin-2-yl)morpholine] | +++ (Emax>150 and ≤250) | ≤ 50 nM
Cc1ccc2c(-c3ccc(Cl)cc3F)nc(N3CCO[C@@H](c4cnn(C)c4)C3)cc2c1 [Example 147, 1-(4-chloro-2-fluorophenyl)-6-methyl-3-((2S)-2-(1-methyl-1H-pyrazol-4-yl)-4-morpholinyl) isoquinoline] | ++++ (Emax>250) | 3000 to 100000 nM
Cc1nc2nc(N3CCO[C@@H](c4cnn(C5CC5)c4)C3)nc(C3CCC(F)(F)CC3)c2nc1C [Example 138, 2-((2S)-2-(1-cyclopropyl-1H-pyrazol-4-yl)-4-morpholinyl)-4-(4,4-difluorocyclohexyl)-6,7-dimethylpteridine] | +++ (Emax>150 and ≤250) | ≤ 50 nM
Cc1nc2nc(N3CCO[C@@H](c4cnn(C)c4)C3)nc([C@H]3C[C@@H](C(F)(F)F)C3)c2nc1C [Example 43, 6,7-dimethyl-2-((2S)-2-(1-methyl-1H-pyrazol-4-yl)-4-morpholinyl)-4-(cis-3-(trifluoromethyl)cyclobutyl)pteridine] | +++ (Emax>150 and ≤250) | 50 to 500 nM
Cc1cc([C@@H]2CN(c3nc4nc(C)cnc4c([C@H]4C[C@H](C(F)(F)F)C4)n3)CCO2)cnn1 [Example 281, (R)-4-(7-methyl-4-((1r,3S)-3-(trifluoromethyl)cyclobutyl)pteridin-2-yl)-2-(6-methylpyridazin-4-yl)morpholine] | +++ (Emax>150 and ≤250) | 500 to 3000 nM
Cc1cc([C@H]2CN(c3cc4nc(C)ccc4c(-c4ccc(Cl)cc4F)n3)CCO2)ccn1 [Example 151, 5-(4-chloro-2-fluorophenyl)-2-methyl-7-((2S)-2-(2-methyl-4-pyridinyl)-4-morpholinyl)-1,6-naphthyridine] | ++++ (Emax>250) | 50 to 500 nM
CCn1cc([C@H]2CN(c3cc4nc(C)ccc4c(-c4ccc(Cl)cc4F)n3)CCO2)cn1 [Example 239, (S)-4-(5-(4-chloro-2-fluorophenyl)-2-methyl-1,6-naphthyridin-7-yl)-2-(1-ethyl-1H-pyrazol-4-yl)morpholine] | +++ (Emax>150 and ≤250) | 3000 to 100000 nM
Cc1nc2nc(N3CCO[C@H](c4cnn(C)c4)C3)nc(N3CCC[C@@H](F)C3)c2nc1C [Example 262, (R)-4-(4-((R)-3-fluoropiperidin-1-yl)-6,7-dimethylpteridin-2-yl)-2-(1-methyl-1H-pyrazol-4-yl)morpholine] |  | 3000 to 100000 nM

More lines, now with the values ahead:

hTREM2 Emax | EC50 | SMILES
++ (Emax>100 and ≤150) | 500 to 3000 nM | Cn1cc([C@H]2CN(c3nc(-c4ccc(Cl)cc4F)c4ccc(Cl)nc4n3)CCO2)cn1 [Example 283, (S)-4-(7-chloro-4-(4-chloro-2-fluorophenyl)pyrido[2,3-d]pyrimidin-2-yl)-2-(1-methyl-1H-pyrazol-4-yl)morpholine]
+++ (Emax>150 and ≤250) | 50 to 500 nM | Cc1cnc2c(-c3ccc(Cl)cc3F)nc(N3CCO[C@@H](c4cnc(C)nc4)C3)nc2n1 [Example 4, 4-(4-chloro-2-fluorophenyl)-7-methyl-2-((2S)-2-(2-methyl-5-pyrimidinyl)-4-morpholinyl)pteridine]
+++ (Emax>150 and ≤250) | 50 to 500 nM | Cc1ccc2c(C3CCC(F)(F)CC3)nc(N3CCO[C@@H](c4cnn(C5CC5)c4)C3)nc2n1 [Example 143, 2-((2S)-2-(1-cyclopropyl-1H-pyrazol-4-yl)-4-morpholinyl)-4-(4,4-difluorocyclohexyl)-7-methylpyrido [2,3-d]pyrimidine]
++++ (Emax>250) | ≤ 50 nM | Cc1nc2nc(N3CCO[C@@H](c4cnn(C)c4)C3)cc(-c3ccc(Cl)cc3F)c2nc1C [Example 160, 8-(4-chloro-2-fluorophenyl)-2,3-dimethyl-6-((2S)-2-(1-methyl-1H-pyrazol-4-yl)-4-morpholinyl)pyrido [2,3-b]pyrazine]
+ (Emax>45 and ≤100) | 50 to 500 nM | Cc1cc2c(OCC3CC(F)(F)C3)nc(N3CCO[C@@H](c4cnn(C)c4)C3)nc2nc1C [Example 108, 4-((3,3-difluorocyclobutyl)methoxy)-6,7-dimethyl-2-((2S)-2-(1-methyl-1H-pyrazol-4-yl)-4-morpholinyl)pyrido[2,3-d]pyrimidine]
++ (Emax>100 and ≤150) | 500 to 3000 nM | Cc1nc2nc([C@@H]3CCO[C@H](c4cnn(C)c4)C3)cc(-c3ccc(F)cc3F)c2nc1C [Example 255, 8-(2,4-difluorophenyl)-2,3-dimethyl-6-((2S,4R)-2-(1-methyl-1H-pyrazol-4-yl)tetrahydro-2H-pyran-4-yl)pyrido[2,3-b]pyrazine]
+++ (Emax>150 and ≤250) | 500 to 3000 nM | Cc1cc([C@H]2CN(c3nc4nc(C)cnc4c([C@H]4C[C@@H](C(F)(F)F)C4)n3)CCO2)cnn1 [Example 280, (S)-4-(7-methyl-4-((1s,3R)-3-(trifluoromethyl)cyclobutyl)pteridin-2-yl)-2-(6-methylpyridazin-4-yl)morpholine]
+++ (Emax>150 and ≤250) | ≤ 50 nM | Cc1ccc(-c2nc(N3CCO[C@@H](c4cnn(C5CC5)c4)C3)nc3nc(C)cnc23)c(F)c1 [Example 9, 2-((2S)-2-(1-cyclopropyl-1H-pyrazol-4-yl)-4-morpholinyl)-4-(2-fluoro-4-methylphenyl)-7-methylpteridine]
+++ (Emax>150 and ≤250) | ≤ 50 nM | Cc1cc([C@H]2CN(c3nc(C4CCC(F)(F)CC4)c4nc(C)c(C)nc4n3)CCO2)ccn1 [Example 139, 4-(4,4-difluorocyclohexyl)-6,7-dimethyl-2-((2S)-2-(2-methyl-4-pyridinyl)-4-morpholinyl)pteridine]
 | 3000 to 100000 nM | CN1Cc2c(cc(N3CCO[C@@H](c4cnn(C)c4)C3)nc2[C@H]2C[C@@H](C(F)(F)F)C2)C1=O [Example 117, 2-methyl-6-((2S)-2-(1-methyl-1H-pyrazol-4-yl)-4-morpholinyl)-4-(cis-3-(trifluoromethyl)cyclobutyl)-2,3-dihydro-1H-pyrrolo[3,4-c]pyridin-1-one]
++++ (Emax>250) | ≤ 50 nM | Cc1nc2nc(N3CCC(F)(F)[C@H](c4cnn(C)c4)C3)nc(-c3ccc(Cl)cc3F)c2nc1C (single isomer, unassigned) [Example 124]
